Here are results for 1 compound from patent publication US20230183243A1, “HETEROARYL DERIVATIVES AND PHARMACEUTICAL COMPOSITION COMPRISING SAME AS ACTIVE INGREDIENT” (VORONOI INC., priority 2019, published 2023).

The test has as its target LRRK2 (Homo sapiens, UniProt Q5S007). Nature of the test: LRRK2 enzyme activity, ADP-Glo kinase assay. Type of test: biochemical. The arrangement: purchased Invitrogen PR8604B. The note with it: purified human LRRK2, ATP 10 μM, 25° C., 2 hours. Here is the method:
To evaluate the inhibitory activity of the compound according to the present invention against LRRK2 and JNKs, an experiment was performed as follows.
The compound of Example 7 was reacted with a purified human LRRK2 (Invitrogen #PR8604B) enzyme to evaluate an ability of the compound of Example 7 to inhibit the enzyme using a method as described below. A composition of 40 mM Tris-HCl (pH 7.4), 20 mM MgCl2, 0.5 mg/mL BSA, and 50 μM DTT was used as a reaction buffer, and all reactions of test substances were performed in the reaction buffer. The compound was diluted […] from a 10 mM DMSO stock using a serial dilution method, and enzyme activity was measured at final compound concentrations of 50, 10, 2, 0.4, 0.08, 0.016, 0.0032, 0.00064, 0.000128, 0.0000256, 0.00000512, and 0.000001024 μM. In the test, purified ATP (10 μM) and an enzyme substrate (0.2 μg) were reacted with a human LRRK2 (25 ng) enzyme at 25° C. for 2 hours, and the enzyme activity was then determined using an in vitro ADP-Glo™ kinase assay (Promega). An enzyme-activity reaction solution, an ADP-Glo reaction solution, and an enzyme-ability detection solution were reacted at a ratio of 2:2:1 to measure a degree of inhibition of the enzyme activity with luminescence. […]
For orientation: In ADP-Glo the light output rises with the ADP produced.

By IC50 is commonly meant the concentration that inhibits the measured activity by half. High values mean a need for much substance, low ones inhibition by little substance.

Some results are limits rather than exact numbers.

LRRK2, sequence (Q5S007 970-2527 limits assumed): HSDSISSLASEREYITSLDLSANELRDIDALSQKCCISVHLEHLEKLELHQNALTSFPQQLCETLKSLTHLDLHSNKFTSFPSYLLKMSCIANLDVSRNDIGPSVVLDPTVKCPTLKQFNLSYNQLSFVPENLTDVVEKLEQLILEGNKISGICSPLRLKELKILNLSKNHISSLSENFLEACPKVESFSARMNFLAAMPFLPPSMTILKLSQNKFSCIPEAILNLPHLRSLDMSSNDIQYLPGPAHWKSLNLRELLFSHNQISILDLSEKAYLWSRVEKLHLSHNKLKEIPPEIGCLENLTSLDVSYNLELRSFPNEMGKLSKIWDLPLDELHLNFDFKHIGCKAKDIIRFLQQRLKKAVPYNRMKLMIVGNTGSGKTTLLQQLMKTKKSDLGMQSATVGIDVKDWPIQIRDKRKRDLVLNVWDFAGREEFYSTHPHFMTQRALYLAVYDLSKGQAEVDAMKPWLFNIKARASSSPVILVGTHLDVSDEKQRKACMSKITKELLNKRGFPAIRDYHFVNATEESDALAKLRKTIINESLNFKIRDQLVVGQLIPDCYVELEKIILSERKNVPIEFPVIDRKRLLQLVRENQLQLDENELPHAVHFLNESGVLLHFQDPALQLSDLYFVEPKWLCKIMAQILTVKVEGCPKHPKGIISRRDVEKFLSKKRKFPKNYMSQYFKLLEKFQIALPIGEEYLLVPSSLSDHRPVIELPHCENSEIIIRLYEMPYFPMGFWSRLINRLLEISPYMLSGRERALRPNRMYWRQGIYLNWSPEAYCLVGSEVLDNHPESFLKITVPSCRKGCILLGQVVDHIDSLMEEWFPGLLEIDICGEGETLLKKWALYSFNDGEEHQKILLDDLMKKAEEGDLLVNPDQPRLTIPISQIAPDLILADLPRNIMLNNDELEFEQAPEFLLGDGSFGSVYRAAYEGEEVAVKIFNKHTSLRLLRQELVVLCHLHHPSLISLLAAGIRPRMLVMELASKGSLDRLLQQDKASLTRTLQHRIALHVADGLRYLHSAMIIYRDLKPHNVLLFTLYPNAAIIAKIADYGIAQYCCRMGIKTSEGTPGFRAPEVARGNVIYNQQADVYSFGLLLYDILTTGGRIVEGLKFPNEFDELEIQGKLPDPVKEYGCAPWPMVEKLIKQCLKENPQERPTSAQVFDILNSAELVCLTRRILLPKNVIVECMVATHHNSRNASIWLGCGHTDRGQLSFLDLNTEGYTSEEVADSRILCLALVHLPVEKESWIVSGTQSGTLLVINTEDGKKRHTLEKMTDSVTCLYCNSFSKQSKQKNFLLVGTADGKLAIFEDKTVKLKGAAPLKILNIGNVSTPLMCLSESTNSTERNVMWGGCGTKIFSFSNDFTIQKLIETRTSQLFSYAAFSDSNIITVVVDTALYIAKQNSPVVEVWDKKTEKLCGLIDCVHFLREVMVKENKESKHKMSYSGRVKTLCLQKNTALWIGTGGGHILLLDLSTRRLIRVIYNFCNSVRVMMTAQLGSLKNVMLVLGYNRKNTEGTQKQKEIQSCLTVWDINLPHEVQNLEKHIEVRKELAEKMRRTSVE

As to `COc1cc(-c2ccnn2C)ccc1Nc1nc(NC2CCCCC2)c2c(C#N)c[nH]c2n1` [Example 7, 4-(cyclohexylamino)-2-((2-methoxy-4-(1-methyl-1H-pyrazol-5-yl)phenyl)amino)-7H-pyrrolo[2,3-d] pyrimidine-5-carbonitrile], the IC50 is under 1000 nM.
